Data set [1] in a line: Caco2 permeability (bi-directional). It counts as in vitro ADME, human. The following applies: human, pH 7.4; for Papp A→B at 1 h, 10 µM: Caco-2, apical to basolateral, read-out: Papp (A2B); for efflux ratio at 1 h, 10 µM: Caco-2, ratio of PappB>A/PappA>B. An outline of the steps: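 Bidirectional transport across Caco-2 monolayers was run for 1 h at 37 °C with shaking, with 50 μM Lucifer Yellow in the donor to check monolayer integrity (acceptance ≤100 nm/s). Apical and basal compound levels were measured by LC-MS/MS, and efflux ratio was taken as PappB>A/PappA>B.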

Data set [2] in a line: Microsomal stability, rat liver microsomes. The class given is in vitro ADME. Conditions: percentage of compound remaining after 60 minutes, 3 μM compound. An outline of the steps: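 Compound was incubated with liver microsomes plus an NADP+/glucose-6-phosphate/G6PDH/MgCl2 regenerating system at 37°C for 1 h. Reactions were stopped 1:1 with MeOH or ACN and analysed by LCMS.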

For data set [3], the system named is JAK-STAT signalling in HeLa cells. The data set is described as follows: JAK-STAT signalling assay (OSM-triggered pSTAT1(2)-luciferase reporter in HeLa cells). The class given is cell-based. The following applies: Homo sapiens; HeLa cells, OSM-triggered pSTAT1(2)-luciferase reporter; read-out: STAT signalling EC50. An outline of the steps: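 HeLa cells transiently transfected with pSTAT1(2)-luciferase reporter plus LacZ internal control, incubated overnight at 37 °C, 10% CO2, then OSM-stimulated with compound. Luciferase read by Steadylite luminescence and normalised to β-galactosidase (ONPG); percent inhibition from controls, EC50 from dose-response.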
For orientation: In a reporter assay the amount or activity of a reporter protein is the signal.

Data set [4] has as its target Recombinant human JAK2 catalytic domain (Homo sapiens (Human), UniProt O60674). As to the kind of experiment: JAK2 inhibition assay. It counts as biochemical. Conditions: semi-quantitative score. An outline of the steps: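 Radiometric kinase reactions ran for 90 min at 30 °C and were stopped with phosphoric acid, then washed and counted by scintillation. Percent inhibition was set relative to vehicle and to 10 μM staurosporine background. IC50 was derived from dose-dilution series.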

Data set [5] concerns the target Recombinant human JAK3 catalytic domain (Homo sapiens (Human), UniProt P52333). The data set is described as follows: JAK3 inhibition assay. It counts as biochemical.
The next data set concerns TNF-alpha release. The data set is described as follows: Septic shock model (LPS-induced TNF release). It counts as in vivo, mouse. The following applies: 30 mg/kg po, BALB/cJ mice, LPS ip; statistically significant. The protocol:
Injection of lipopolysaccharide (LPS) induces a rapid release of soluble tumour necrosis factor (TNF-alpha) into the periphery. This model is used to analyse prospective blockers of TNF release in vivo.
Six BALB/cJ female mice (20 g) per group were treated at the intended dosing once, po. Thirty minutes later, LPS (15 μg/kg; E. Coli serotype 0111:B4) was injected ip. Ninety minutes later, mice were euthanized and blood was collected. Circulating TNF alpha levels were determined using commercially available ELISA kits. Dexamethasone (5 μg/kg) was used as a reference anti-inflammatory compound. Selected compounds are tested at one or multiple doses, e.g. 3 and/or 10 and/or 30 mg/kg, po.

SMILES strings stand for the structures. Read-outs that look alike come from different tables or passages of the source. Where only a bound is given, the exact number is not on record here.

Chain of Recombinant human JAK2 catalytic domain (O60674 808-1132): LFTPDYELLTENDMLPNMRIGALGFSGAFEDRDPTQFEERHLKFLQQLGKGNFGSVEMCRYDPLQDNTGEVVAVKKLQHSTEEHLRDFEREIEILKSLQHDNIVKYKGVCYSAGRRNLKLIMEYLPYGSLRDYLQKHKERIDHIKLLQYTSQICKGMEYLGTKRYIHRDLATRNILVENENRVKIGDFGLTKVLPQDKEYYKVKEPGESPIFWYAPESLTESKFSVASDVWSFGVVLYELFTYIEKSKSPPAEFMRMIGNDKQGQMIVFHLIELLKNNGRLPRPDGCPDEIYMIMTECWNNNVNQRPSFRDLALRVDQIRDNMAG
Chain of Recombinant human JAK3 catalytic domain (P52333 781-1124): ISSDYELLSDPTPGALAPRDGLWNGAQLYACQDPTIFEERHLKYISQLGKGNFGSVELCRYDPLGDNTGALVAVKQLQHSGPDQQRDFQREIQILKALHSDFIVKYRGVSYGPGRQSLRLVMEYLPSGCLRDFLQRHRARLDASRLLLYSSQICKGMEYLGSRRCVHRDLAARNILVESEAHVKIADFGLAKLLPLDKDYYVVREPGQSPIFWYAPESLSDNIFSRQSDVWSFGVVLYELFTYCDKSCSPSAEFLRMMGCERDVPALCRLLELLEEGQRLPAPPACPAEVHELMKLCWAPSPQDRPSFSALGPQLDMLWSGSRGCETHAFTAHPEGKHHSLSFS

One may read the efflux ratio as a quotient of directional permeabilities that is used to spot active efflux. As a reminder, the EC50 is the concentration giving half of the maximal effect. As to `CC1CCCN(C(=O)c2ccc(-c3cccc4nc(NC(=O)C5CC5)nn34)cc2)C1` (stereo not shown) [Compound 145, N-(5-(4-(3-methylpiperidine-1-carbonyl)phenyl)-[1,2,4]triazolo[1,5-a]pyridin-2-yl)cyclopropanecarboxamide], in data set [1], the Papp A→B at 1 h, 10 µM was 14.7 ×10⁻⁶ cm/s and the efflux ratio at 1 h, 10 µM turned out to be 2. In addition, the “Microsomal Stability Rat (%)” value in data set [2] is reported as “* (* 0-25)”. In addition, in data set [3], the EC50 fell in the range of 501 to 1000 nM.

As usually defined, the IC50 is the point on the concentration scale where inhibition reaches its midpoint. For the compound `O=C(Nc1nc2cccc(-c3ccc(CN4CCOCC4)cc3)n2n1)C1CC1` [Compound 18, N-(5-(4-(morpholinomethyl)phenyl)-[1,2,4]triazolo[1,5-a]pyridin-2-yl)cyclopropanecarboxamide], the IC50 in data set [4] and in data set [5] (semi-quantitative score) was > 1000 nM throughout. Further, in data set [2], the “Microsomal Stability Rat (%)” value is listed as “** (** 26-50)”. Also, the EC50 in data set [3] is > 1000 nM. The “reduction in the TNF release” value in the data set with TNF-alpha release was > 50%.

As for `CC1CN(C(=O)c2ccc(-c3cccc4nc(NC(=O)C5CC5)nn34)cc2)CC(C)O1` (stereo not shown) [Compound 215, Cyclopropanecarboxylic acid {5-[4-(2,6-dimethyl-morpholine-4-carbonyl)-phenyl]-[1,2,4]triazolo[1,5-a]pyridin-2-yl}-amide], in data set [4], the IC50 is 101 to 500 nM. Besides, in data set [1], the Papp A→B at 1 h, 10 µM was determined as 6.05 ×10⁻⁶ cm/s and the efflux ratio at 1 h, 10 µM was 9.3. The “Microsomal Stability Rat (%)” value in data set [2] is on record as “**** (**** 76-100)”. Further, the EC50 in data set [3] is 101 to 500 nM. The IC50 in data set [5] (semi-quantitative score) was < 100 nM. Also, the “reduction in the TNF release” value in the data set on TNF-alpha release is > 50%.

With `CC1(C)CN(C(=O)c2ccc(-c3cccc4nc(NC(=O)C5CC5)nn34)cc2)C1` [Compound 330, Cyclopropanecarboxylic acid (5-[4-(3,3-dimethyl-azetidine-1-carbonyl)-phenyl]-[1,2,4]triazolo[1,5-a]pyridin-2-yl}-amide], the IC50 in data set [4] lay in the range of 101 to 500 nM. Also, in data set [1], the Papp A→B at 1 h, 10 µM is 6.5 ×10⁻⁶ cm/s and the efflux ratio at 1 h, 10 µM was found to be 5.5. The “Microsomal Stability Rat (%)” value in data set [2] is “**** (**** 76-100)”. For the same compound, the EC50 in data set [3] lay within 1 to 100 nM. Also, the IC50 in data set [5] (semi-quantitative score) lay within 101 to 500 nM.

On to `N#Cc1ccc(COc2ccc(-c3cccc4nc(NC(=O)C5CC5)nn34)cc2)cn1` [Compound 176, N-(5-(4-((6-cyanopyridin-3-yl)methoxy)phenyl)-[1,2,4]triazolo[1,5-a]pyridin-2-yl)cyclopropanecarboxamide], for which the IC50 in data set [4] and in data set [5] was < 100 nM in each case. Moreover, in data set [1], the efflux ratio at 1 h, 10 µM came to 0.8. In data set [2], the “Microsomal Stability Rat (%)” value is “**** (**** 76-100)”. Besides, the EC50 in data set [3] lay in the range of 101 to 500 nM. Further, the “reduction in the TNF release” value in the data set on TNF-alpha release is > 50%.
